# From patent publication US7361645B2, “Androgenic 7-substituted 11-halogen steroids” (Bayer Schering Pharma AG, priority 2001, dated 2008)
# Values joined by “and” are separate entries in the source; they are usually repeats but may differ in a detail not shown here. Identical values can stand only once.
# Key:
# prostate = experiment: Hershberger test, juvenile castrated male rat: prostate weight; type: in vivo; settings: ORX juvenile rats, 7 days
# From the text: (§1) The test by Hershberger et al. (1953) is used as a screening test method for detecting androgenic properties:
# (§2) Principle. The function and size of the accessory reproductive glands (seminal vesicles, prostate) and of the muscle (e.g. M. levator ani) are androgen dependent. Castration leads to the atrophy of these organs, the substitution with androgenic compounds stimulates growth and function in a dose dependent manner.
# (§3) Test description. In the juvenile male castrated rat, pharmacologically active agonists of androgens stimulate the growth of the prostate, seminal vesicles (androgenic property) and Musculus levator ani (anabolic property). The treatment for seven days of juvenile castrated male rats with daily administration of compound A: 11β-Fluoro-17β-hydroxy-7α-methyl-estr-4-en-3-one,(different doses), compound B: 7α-methyl-19-nortestosterone (different doses), testosterone propionate (reference) and benzylbenzoate/ricinus oil (solvent and control), respectively, was used to determine the androgenic and anabolic potency of eF-MENT. Analyses: relative weights of prostate, seminal vesicles and M. levator ani.
# (§4) Animals: ORX, juvenile rats, duration of treatment: 7 days.
# seminal vesicles = experiment: Hershberger test, juvenile castrated male rat: seminal vesicles weight; type: in vivo; settings: ORX juvenile rats, 7 days
# From the text: as §1, §2, §3, §4
# M. levator ani = experiment: Hershberger test, juvenile castrated male rat: M. levator ani weight; type: in vivo; settings: ORX juvenile rats, 7 days
# From the text: as §1, §2, §3, §4
# [1] = Stability in liver microsomes, human; type: in vitro ADME; settings: 3 μM
# Experimental: (§5) The metabolic stability of the compounds has been tested in liver microsomes of various species (commercially available). It is possible to make predictions as to the first-pass-metabolism in human by using human test material. A rapid degradation of the test material gives hints at low oral bio-availability of the substance tested.
# (§6) The amount of the remaining compound is quantified by comparison with the amount remaining after 0 mins.
# (§7) Species Specific Stability of Test Compounds in Liver at a Concentration of 3 μM
# [2] = Stability in liver microsomes, mouse; type: in vitro ADME; settings: 3 μM
# Experimental: as §5, §6, §7
# [3] = Stability in liver microsomes, rat; type: in vitro ADME; settings: 3 μM
# Experimental: as §5, §6, §7
# [4] = test system: prostate, seminal vesicles and M. levator ani; experiment: Anabolic and androgenic activity in the juvenile male rat (Hershberger), overall; type: in vivo; settings: compared with prior art compound B
# From the text: as §1, §2, §3
# [5] = Stability in liver microsomes of various species, overall; type: in vitro ADME; settings: compared with compounds of the prior art
# Experimental: as §5, §6
compound,measurement,setting,value
"C[C@@H]1CC2=CC(=O)CC[C@@H]2[C@@H]2[C@@H]1[C@@H]1CC[C@H](O)[C@@]1(C)C[C@@H]2F [Compound A, 11β-Fluoro-17β-hydroxy-7α-methyl-estr-4-en-3-one]",Prostate Stimulation [mean],prostate; dose 0.015 mg*kg^-1*day^-1,30.0
same,Prostate rel. Weight,prostate; dose 0.015 mg*kg^-1*day^-1,19.7 mg/100 g and 18.5 mg/100 g
same,Prostate Stimulation [mean],prostate; dose 0.03 mg*kg^-1*day^-1,40.1
same,Prostate rel. Weight,prostate; dose 0.03 mg*kg^-1*day^-1,25.2 mg/100 g
same,Prostate Stimulation [mean],prostate; dose 0.05 mg*kg^-1*day^-1,76.6
same,Prostate rel. Weight,prostate; dose 0.05 mg*kg^-1*day^-1,34.1 mg/100 g
same,Prostate Stimulation [mean],prostate; dose 0.15 mg*kg^-1*day^-1,93.8
same,Prostate rel. Weight,prostate; dose 0.15 mg*kg^-1*day^-1,41.7 mg/100 g and 44.9 mg/100 g and 47.5 mg/100 g
same,Prostate Stimulation [mean],prostate; dose 0.3 mg*kg^-1*day^-1,125.1
same,Prostate rel. Weight,prostate; dose 0.3 mg*kg^-1*day^-1,59.5 mg/100 g
same,Prostate Stimulation [mean],prostate; dose 1.5 mg*kg^-1*day^-1,137.3
same,Prostate rel. Weight,prostate; dose 1.5 mg*kg^-1*day^-1,64.6 mg/100 g
same,Seminal vesicles Stimulation [mean],seminal vesicles; dose 0.015 mg*kg^-1*day^-1,18.6
same,Seminal vesicles rel. Gewicht,seminal vesicles; dose 0.015 mg*kg^-1*day^-1,18.6 mg/100 g and 15.5 mg/100 g
same,Seminal vesicles Stimulation [mean],seminal vesicles; dose 0.03 mg*kg^-1*day^-1,35.6
same,Seminal vesicles rel. Gewicht,seminal vesicles; dose 0.03 mg*kg^-1*day^-1,26.8 mg/100 g
same,Seminal vesicles Stimulation [mean],seminal vesicles; dose 0.05 mg*kg^-1*day^-1,59.2
same,Seminal vesicles rel. Gewicht,seminal vesicles; dose 0.05 mg*kg^-1*day^-1,43.6 mg/100 g
same,Seminal vesicles Stimulation [mean],seminal vesicles; dose 0.15 mg*kg^-1*day^-1,85.5
same,Seminal vesicles rel. Gewicht,seminal vesicles; dose 0.15 mg*kg^-1*day^-1,49.3 mg/100 g and 57.9 mg/100 g and 64.4 mg/100 g
same,Seminal vesicles Stimulation [mean],seminal vesicles; dose 0.3 mg*kg^-1*day^-1,144.8
same,Seminal vesicles rel. Gewicht,seminal vesicles; dose 0.3 mg*kg^-1*day^-1,93.4 mg/100 g
same,Seminal vesicles Stimulation [mean],seminal vesicles; dose 1.5 mg*kg^-1*day^-1,189.3
same,Seminal vesicles rel. Gewicht,seminal vesicles; dose 1.5 mg*kg^-1*day^-1,120.0 mg/100 g
same,M. levator ani Stimulation [mean],M. levator ani; dose 0.015 mg*kg^-1*day^-1,79.5
same,M. levator ani rel. Weight,M. levator ani; dose 0.015 mg*kg^-1*day^-1,54.9 mg/100 g and 50.8 mg/100 g
same,M. levator ani Stimulation [mean],M. levator ani; dose 0.03 mg*kg^-1*day^-1,93.3
same,M. levator ani rel. Weight,M. levator ani; dose 0.03 mg*kg^-1*day^-1,56.5 mg/100 g
same,M. levator ani Stimulation [mean],M. levator ani; dose 0.05 mg*kg^-1*day^-1,118.0
same,M. levator ani rel. Weight,M. levator ani; dose 0.05 mg*kg^-1*day^-1,59.4 mg/100 g
same,M. levator ani Stimulation [mean],M. levator ani; dose 0.15 mg*kg^-1*day^-1,154.5
same,M. levator ani Stimulation [mean],M. levator ani; dose 0.3 mg*kg^-1*day^-1,180.4
same,M. levator ani rel. Weight,M. levator ani; dose 0.3 mg*kg^-1*day^-1,69.8 mg/100 g
same,M. levator ani Stimulation [mean],M. levator ani; dose 1.5 mg*kg^-1*day^-1,181.0
same,M. levator ani rel. Weight,M. levator ani; dose 1.5 mg*kg^-1*day^-1,69.9 mg/100 g
same,(%) left unchanged after 30 min,[1],59%
same,(%) left unchanged after 60 min,[1],41%
same,(%) left unchanged after 30 min,[2],20%
same,(%) left unchanged after 60 min,[2],11%
same,(%) left unchanged after 30 min,[3],5%
same,(%) left unchanged after 60 min,[3],7%
same,activity profile (androgenic/anabolic),[4],comparable to the prior art compound B
same,metabolic stability,[5],higher than that of compounds of the prior art
"C[C@@H]1CC2=CC(=O)CC[C@@H]2[C@H]2CC[C@]3(C)[C@@H](O)CC[C@H]3[C@@H]21 [Compound B, 7α-methyl-19-nortestosterone, reference compound]",Prostate Stimulation [mean],prostate; dose 0.005 mg*kg^-1*day^-1,4.3
same,Prostate rel. Weight,prostate; dose 0.005 mg*kg^-1*day^-1,8.9 mg/100 g
same,Prostate Stimulation [mean],prostate; dose 0.015 mg*kg^-1*day^-1,24.0
same,Prostate rel. Weight,prostate; dose 0.015 mg*kg^-1*day^-1,14.6 mg/100 g and 20.0 mg/100 g
same,Prostate Stimulation [mean],prostate; dose 0.05 mg*kg^-1*day^-1,51.3
same,Prostate rel. Weight,prostate; dose 0.05 mg*kg^-1*day^-1,24.7 mg/100 g and 31.7 mg/100 g
same,Prostate Stimulation [mean],prostate; dose 0.15 mg*kg^-1*day^-1,90.2
same,Prostate rel. Weight,prostate; dose 0.15 mg*kg^-1*day^-1,40.6 mg/100 g
same,Seminal vesicles Stimulation [mean],seminal vesicles; dose 0.005 mg*kg^-1*day^-1,4.6
same,Seminal vesicles rel. Gewicht,seminal vesicles; dose 0.005 mg*kg^-1*day^-1,9.2 mg/100 g
same,Seminal vesicles Stimulation [mean],seminal vesicles; dose 0.015 mg*kg^-1*day^-1,17.0
same,Seminal vesicles rel. Gewicht,seminal vesicles; dose 0.015 mg*kg^-1*day^-1,13.6 mg/100 g and 19.2 mg/100 g
same,Seminal vesicles Stimulation [mean],seminal vesicles; dose 0.05 mg*kg^-1*day^-1,51.8
same,Seminal vesicles rel. Gewicht,seminal vesicles; dose 0.05 mg*kg^-1*day^-1,36.8 mg/100 g and 39.0 mg/100 g
same,Seminal vesicles Stimulation [mean],seminal vesicles; dose 0.15 mg*kg^-1*day^-1,87.8
same,Seminal vesicles rel. Gewicht,seminal vesicles; dose 0.15 mg*kg^-1*day^-1,65.5 mg/100 g
same,M. levator ani Stimulation [mean],M. levator ani; dose 0.005 mg*kg^-1*day^-1,71.3
same,M. levator ani rel. Weight,M. levator ani; dose 0.005 mg*kg^-1*day^-1,36.6 mg/100 g
same,M. levator ani Stimulation [mean],M. levator ani; dose 0.015 mg*kg^-1*day^-1,92.6
same,M. levator ani rel. Weight,M. levator ani; dose 0.015 mg*kg^-1*day^-1,38.1 mg/100 g and 53.7 mg/100 g
same,M. levator ani Stimulation [mean],M. levator ani; dose 0.05 mg*kg^-1*day^-1,150.7
same,M. levator ani rel. Weight,M. levator ani; dose 0.05 mg*kg^-1*day^-1,48.1 mg/100 g and 59.4 mg/100 g
same,M. levator ani Stimulation [mean],M. levator ani; dose 0.15 mg*kg^-1*day^-1,283.4
same,M. levator ani rel. Weight,M. levator ani; dose 0.15 mg*kg^-1*day^-1,59.4 mg/100 g
same,(%) left unchanged after 30 min,[1],37%
same,(%) left unchanged after 60 min,[1],19%
same,(%) left unchanged after 30 min,[2],4%
same,(%) left unchanged after 60 min,[2],4%
same,(%) left unchanged after 30 min,[3],4%
same,(%) left unchanged after 60 min,[3],6%
